# Like-named read-outs stand apart in the source and are kept apart here.
# Experiments:
# PGA1 CLL cell line = test: Cell proliferation and viability assay (384-well flow cytometry, Annexin V/DRAQ7), PGA1; assay type: cell-based; conditions: 120 hours
# Experimental: (§1) The following are examples of cell-based assays that can be used to determine the anti-proliferative activity and apoptotic effect of compounds described herein using exemplary CLL cell lines (Table 3). The in vitro growth inhibitory activity of Compound 1 described herein was evaluated using a 384-well flow cytometry assay.
# (§2) The cell lines were plated under the conditions shown in Table 3 in 384-well flat bottom plates and incubated with increasing concentrations of compound ranging from 0.00015 to 10 μM or dimethyl sulfoxide (DMSO) control. The final concentration of DMSO was 0.1% (v/v). Following the addition of Compound 1 or DMSO and incubation for 120 hours, cell number and cell death were analyzed by flow cytometry (Attune®, Thermo Fisher) using Annexin V and the live-cell impermeant DNA dye, DRAQ7. […]
# (§3) Flow cytometry data analysis was then performed using the Flow Jo_v10 software to determine the number of viable cells (Annexin V and DRAQ7 double negative staining cells) and percentage of apoptotic cells (Annexin V positive cells) for each condition. […] The IC50 (50% inhibitory concentration) and Emax (maximum efficacy achieved) values were then calculated by performing nonlinear regression curve fitting using log (inhibitor) vs. normalized response—variable slope analysis on GraphPad Prism 7.03. […]
# [1] = test system: primary CLL cells from patient-derived blood; test: Cell proliferation and viability assay for B-cell CLL patient cells (ex vivo co-culture with CD154-expressing fibroblasts); assay type: cell-based, human; design: AUC: unit not given here; conditions: for Emax / IC50: Homo sapiens, CLL cell; for Emax: read-out: Emax (percentage of tumor cells remaining); for AUC: viable cell counts
# Experimental: The following are examples of cell-based assays that can be used to determine the anti-proliferative activity and apoptosis effect of compounds described herein using exemplary CLL patient cells. The effect of Compound 1 on the viability and apoptosis of CLL B cells was assessed utilizing an ex vivo model.
# CLL is characterized by accumulation of clonal CD5^+CD19^+ lymphocytes resistant to apoptosis. The effect of Compound 1 on the viability and apoptosis of CLL B cells was assessed utilizing an ex vivo model where primary CLL cells from patient-derived blood were stimulated with 10% fetal bovine serum (FBS), 5 ng/mL recombinant human interleukin-4 (rh IL-4), 10 ng/mL recombinant human interleukin-10 (rh IL-10) and co-cultured with fibroblast expressing surface CD154 (CD40L). The percentage of cells staining with Annexin V and/or DRAQ-7 was measured by flow cytometry assay after 3, 6 or 10 days of incubation with vehicle control or with increasing concentrations of Compound 1 ranging from 0.001 to 1 μM. Peripheral blood mononuclear cells (PBMCs) from CLL patients (Table 5) containing 70%-95% of CD5^+CD19^+ tumor cells were cultured on a monolayer of CD154-expressing fibroblasts in 24-well plates at a density of patient cells of 0.8×10^6 cells/well in RPMI 1640 medium supplemented with 10% FBS, 5 ng/mL rh IL-4 and 10 ng/mL rh IL-10 and were treated with vehicle control (0.1% DMSO) or increasing concentrations of Compound 1 ranging from 0.001 to 1 μM. After treatment, flow cytometric analysis was used to determine the number of cells that were viable or apoptotic.
# After 3, 6 or 10 days of compound treatment, cells were incubated with Annexin V to capture the externalization of phosphatidylserine as a result of disturbed lipid asymmetry in the plasma membrane of cells, a well-characterized event in apoptosis, and the vital far-red fluorescent DNA dye DRAQ-7, that only stains the nuclei of dead and permeabilized cells, and analyzed by flow cytometry (Attune®, Thermo Fisher). Analysis was then performed to determine the percentage of viable live cells (Annexin V and DRAQ-7 double negative staining cells) using FlowJo_V10 and graphed with GraphPad Prism 7.03 software. The live cell count for every condition was normalized to the DMSO control (considered as 100% viable cells) to calculate the percentage of viable cells remaining after treatment. The IC50 (50% inhibitory concentration) and Emax (maximum efficacy eliminating tumor cells achieved) values were then calculated by performing nonlinear regression curve fitting using log(inhibitor) vs. normalized response—variable slope analysis on GraphPad Prism 7.03. Area under the curve (AUC) value of the viable cell counts over time was calculated by performing area under curve analysis on GraphPad Prism 7.03 (Table 6).
# WA-OSEL CLL cell line = test: Cell proliferation and viability assay (384-well flow cytometry, Annexin V/DRAQ7), WA-OSEL; assay type: cell-based; conditions: 120 hours
# Experimental: as §1, §2, §3
# WA-C3-CD5+ CLL cell line = test: Cell proliferation and viability assay (384-well flow cytometry, Annexin V/DRAQ7), WA-C3-CD5+; assay type: cell-based; conditions: 120 hours
# Experimental: as §1, §2, §3
# CI CLL cell line = test: Cell proliferation and viability assay (384-well flow cytometry, Annexin V/DRAQ7), CI; assay type: cell-based; conditions: 120 hours
# Experimental: as §1, §2, §3
# I83-E95 CLL cell line = test: Cell proliferation and viability assay (384-well flow cytometry, Annexin V/DRAQ7), I83-E95; assay type: cell-based; conditions: 120 hours
# Experimental: as §1, §2, §3
# Mec2 CLL cell line = test: Cell proliferation and viability assay (384-well flow cytometry, Annexin V/DRAQ7), Mec2; assay type: cell-based; conditions: 120 hours
# Experimental: as §1, §2, §3
# CII CLL cell line = test: Cell proliferation and viability assay (384-well flow cytometry, Annexin V/DRAQ7), CII; assay type: cell-based; conditions: 120 hours
# Experimental: as §1, §2, §3
# [2] = Pt10, ex vivo CLL patient cells
smiles,measurement,setting,value
"O=C1CC[C@H](N2C(=O)c3cccc(NCc4ccc(CN5CC(N6CCOCC6)C5)cc4F)c3C2=O)C(=O)N1 [Compound 1, (S)-2-(2,6-dioxopiperidin-3-yl)-4-((2-fluoro-4-((3-morpholinoazetidin-1-yl)methyl)benzyl)amino)isoindoline-1,3-dione]",% Viable Cells Emax (percentage of tumor cells remaining),PGA1 CLL cell line,69.21%
same,Emax,"[1]; Pt1, ex vivo CLL patient cells",4.62%
same,IC50,"[1]; Pt2, ex vivo CLL patient cells, 0.001 to 1 μM, viable cells normalized to DMSO, read-out: IC50",1.05 nM
same,Emax,"[1]; Pt2, ex vivo CLL patient cells",30.6%
same,IC50,"[1]; Pt3, ex vivo CLL patient cells, 0.001 to 1 μM, viable cells normalized to DMSO, read-out: IC50",0.723 nM
same,Emax,"[1]; Pt3, ex vivo CLL patient cells",13%
same,Emax,"[1]; Pt4, ex vivo CLL patient cells",6.5%
same,IC50,"[1]; Pt5, ex vivo CLL patient cells, 0.001 to 1 μM, viable cells normalized to DMSO, read-out: IC50",0.305 nM
same,Emax,"[1]; Pt5, ex vivo CLL patient cells",22.8%
same,IC50,"[1]; Pt6, ex vivo CLL patient cells, 0.001 to 1 μM, viable cells normalized to DMSO, read-out: IC50",2.75 nM
same,Emax,"[1]; Pt6, ex vivo CLL patient cells",27.4%
same,IC50,"[1]; Pt7, ex vivo CLL patient cells, 0.001 to 1 μM, viable cells normalized to DMSO, read-out: IC50",0.036 nM
same,Emax,"[1]; Pt7, ex vivo CLL patient cells",5.87%
same,IC50,"[1]; Pt8, ex vivo CLL patient cells, 0.001 to 1 μM, viable cells normalized to DMSO, read-out: IC50",0.209 nM
same,Emax,"[1]; Pt8, ex vivo CLL patient cells",4.82%
same,IC50,"[1]; Pt9, ex vivo CLL patient cells, 0.001 to 1 μM, viable cells normalized to DMSO, read-out: IC50",0.0652 nM
same,Emax,"[1]; Pt9, ex vivo CLL patient cells",4.14%
same,IC50,"[1]; Pt10, ex vivo CLL patient cells, 0.001 to 1 μM, viable cells normalized to DMSO, read-out: IC50",0.129 nM
same,Emax,[1]; [2],10.2%
same,IC50,"[1]; all CLL patient samples evaluated, read-out: concentrations that led to 50% inhibition of growth (IC50)",0.1 to 3 nM
same,AUC,"[1]; Pt1, ex vivo CLL patient cells",32.79
same,AUC,"[1]; Pt2, ex vivo CLL patient cells",181.6
same,AUC,"[1]; Pt3, ex vivo CLL patient cells",106.1
same,AUC,"[1]; Pt4, ex vivo CLL patient cells",44.01
same,AUC,"[1]; Pt5, ex vivo CLL patient cells",139.6
same,AUC,"[1]; Pt6, ex vivo CLL patient cells",154.9
same,AUC,"[1]; Pt7, ex vivo CLL patient cells",44.86
same,AUC,"[1]; Pt8, ex vivo CLL patient cells",75.03
same,AUC,"[1]; Pt9, ex vivo CLL patient cells",48.14
same,AUC,[1]; [2],57.87
same,% Viable Cells Emax (percentage of tumor cells remaining),WA-OSEL CLL cell line,54.42%
same,% Viable Cells Emax (percentage of tumor cells remaining),WA-C3-CD5+ CLL cell line,44.2%
same,% Viable Cells Emax (percentage of tumor cells remaining),CI CLL cell line,53.58%
same,% Viable Cells Emax (percentage of tumor cells remaining),I83-E95 CLL cell line,21.6%
same,% Viable Cells Emax (percentage of tumor cells remaining),Mec2 CLL cell line,25.55%
same,% Viable Cells Emax (percentage of tumor cells remaining),CII CLL cell line,78.23%

# — patent US11628172B2, “Methods of treating chronic lymphocytic leukemia using 2-(2,6-dioxopiperidin-3-yl)-4-((2-fluoro-4-((3-morpholinoazetidin-1-yl)methyl)benzyl)amino)isoindoline-1,3-dione” (Celgene Corporation, priority 2019, dated 2023)
